Experimental data reported in patent US11771738B2 (Zoetis Services LLC, priority 2018, dated 2023).
Read-outs that look alike come from different tables or passages of the source. Marks after values point to notes of the source that are not given here.

Key:
Type in all cases: cell-based
[1] = tested on: third stage larvae of Haemonchus contortus; assay: Haemonchus contortus, Larvae Stage 3 (HcL3) In Vitro Assay; settings: for minimal effective concentration: Haemonchus contortus, 96 h
[2] = tested on: microfilariae of Dirofilaria immitis; assay: Dirofilaria immitis, Microfilaria (DiMf) In Vitro Assay; settings: Dirofilaria immitis, 72 h, read-out: DiMf MED, Minimum Effective Dose, D. immitis microfilariae motility, in vitro
D. immitis L4 larvae = assay: Dirofilaria immitis, L4 Stage (DiL4) In Vitro Assay; settings: for minimal effective concentration: Dirofilaria immitis, 72 h, read-out: DiL4 MED, Minimum Effective Dose, D. immitis L4 larvae motility, in vitro; for DiMf/DiL4: larval stage selectivity, ratio of DiMf MED to DiL4 MED
[3] = read-out: HcL3 MED, Haemonchus contortus third stage larvae in vitro, class mark appended to the Ex # in Table 3
[4] = read-out: HcL3 MED, Minimum Effective Dose, H. contortus third stage larvae, approximately 96 hours
[5] = read-out: HcL3 MED, approximately 96 hours incubation, multiple-resistant field isolate
[6] = Haemonchus contortus third stage larvae in vitro, class mark appended to the Ex # in Table 3

Row | SMILES | minimal effective concentration [1, 3] [µM] | minimal effective concentration [1, 4] [µM] | minimal effective concentration [2] [µM] | minimal effective concentration (D. immitis L4 larvae) [µM] | DiMf/DiL4 (D. immitis L4 larvae) | minimal effective concentration [1, 5] [µM] | further results
1 | COc1ccc(Cc2ccc(C[C@H]3OC(=O)[C@H](CC(C)C)N(C)C(=O)[C@@H](C)OC(=O)[C@H](CC(C)C)N(C)C(=O)[C@@H](Cc4ccc(Cc5ccc(OC)nc5C)cc4)OC(=O)[C@H](CC(C)C)N(C)C(=O)[C@@H](C)OC(=O)[C@H](CC(C)C)N(C)C3=O)cc2)c(C)n1 [Example 3-121, (3S,6R,9S,12R,15S,18R,21S,24R)-3,9,15,21-tetraisobutyl-6,18-bis(4-((6-methoxy-2-methylpyridin-3-yl)methyl)benzyl)-4,10,12,16,22,24-hexamethyl-1,7,13,19-tetraoxa-4,10,16,22-tetraazacyclotetracosan-2,5,8,11,14,17,20,23-octaone] | 1 to 3.3 | 1.8 | 0.003 | 5e-05 | 60 | – | –
2 | CC(C)C[C@H]1C(=O)O[C@H](Cc2ccc(Cc3cnco3)cc2)C(=O)N(C)[C@@H](CC(C)C)C(=O)O[C@H](C)C(=O)N(C)[C@@H](CC(C)C)C(=O)O[C@H](Cc2ccc(Cc3cnco3)cc2)C(=O)N(C)[C@@H](CC(C)C)C(=O)O[C@H](C)C(=O)N1C [Example 3-148, (3S,6R,9S,12R,15S,18R,21S,24R)-3,9,15,21-tetraisobutyl-4,6,10,16,18,22-hexamethyl-12,24-bis(4-(oxazol-5-ylmethyl)benzyl)-1,7,13,19-tetraoxa-4,10,16,22-tetraazacyclotetracosan-2,5,8,11,14,17,20,23-octaone] | 1 to 3.3 | 3 | 0.001 | 0.0003 | 3.3 | – | –
3 | Cc1csc(Cc2ccc(C[C@H]3OC(=O)[C@H](CC(C)C)N(C)C(=O)[C@@H](C)OC(=O)[C@H](CC(C)C)N(C)C(=O)[C@@H](Cc4ccc(Cc5cc(C)cs5)cc4)OC(=O)[C@H](CC(C)C)N(C)C(=O)[C@@H](C)OC(=O)[C@H](CC(C)C)N(C)C3=O)cc2)c1 [Example 3-124, (3S,6R,9S,12R,15S,18R,21S,24R)-3,9,15,21-tetraisobutyl-4,6,10,16,18,22-hexamethyl-12,24-bis(4-((4-methylthiophen-2-yl)methyl)benzyl)-1,7,13,19-tetraoxa-4,10,16,22-tetraazacyclotetracosan-2,5,8,11,14,17,20,23-octaone] | < 1 | 0.3 | 0.1 | 0.001 | 100 | ≤ 1 | –
4 | COc1ncc(F)cc1Cc1ccc(C[C@H]2OC(=O)[C@H](CC(C)C)N(C)C(=O)[C@@H](C)OC(=O)[C@H](CC(C)C)N(C)C(=O)[C@@H](Cc3ccc(Cc4cc(F)cnc4OC)cc3)OC(=O)[C@H](CC(C)C)N(C)C(=O)[C@@H](C)OC(=O)[C@H](CC(C)C)N(C)C2=O)cc1 [Example 3-293, (3S,6R,9S,12R,15S,18R,21S,24R)-6,18-bis(4-((5-fluoro-2-methoxypyridin-3-yl)methyl)benzyl)-3,9,15,21-tetraisobutyl-4,10,12,16,22,24-hexamethyl-1,7,13,19-tetraoxa-4,10,16,22-tetraazacyclotetracosan-2,5,8,11,14,17,20,23-octaone] | – | 5.7 | 0.05 | 0.0003 | 167 | – | –
5 | CC(C)C[C@H]1C(=O)O[C@H](Cc2ccc(Cc3cccnc3OC(F)F)cc2)C(=O)N(C)[C@@H](CC(C)C)C(=O)O[C@H](C)C(=O)N(C)[C@@H](CC(C)C)C(=O)O[C@H](Cc2ccc(Cc3cccnc3OC(F)F)cc2)C(=O)N(C)[C@@H](CC(C)C)C(=O)O[C@H](C)C(=O)N1C [Example 3-297, (3S,6R,9S,12R,15S,18R,21S,24R)-6,18-bis(4-((2-(difluoromethoxy)pyridin-3-yl)methyl)benzyl)-3,9,15,21-tetraisobutyl-4,10,12,16,22,24-hexamethyl-1,7,13,19-tetraoxa-4,10,16,22-tetraazacyclotetracosan-2,5,8,11,14,17,20,23-octaone] | – | > 10 | 0.03 | 0.001 | 30 | – | –
6 | CC(C)C[C@H]1C(=O)O[C@H](Cc2ccc(Cc3ccccc3)cc2)C(=O)N(C)[C@@H](CC(C)C)C(=O)O[C@H](C)C(=O)N(C)[C@@H](CC(C)C)C(=O)O[C@H](Cc2ccccc2)C(=O)N(C)[C@@H](CC(C)C)C(=O)O[C@H](C)C(=O)N1C [Example 2-1, (3S,6R,9S,12R,15S,18R,21S,24R)-6-benzyl-18-(4-benzylbenzyl)-3,9,15,21-tetraisobutyl-4,10,12,16,22,24-hexamethyl-1,7,13,19-tetraoxa-4,10,16,22-tetraazacyclotetracosan-2,5,8,11,14,17,20,23-octaone] | – | 0.65 | 0.02 | 0.001 | 20 | ≤ 1 | minimal effective concentration ([1]; read-out: HcL3 MED (symbol after Ex#), approximately 96 hours incubation, multiple-resistant field isolate): < 1 µM
7 | COc1nccc(Cc2ccc(C[C@H]3OC(=O)[C@H](CC(C)C)N(C)C(=O)[C@@H](C)OC(=O)[C@H](CC(C)C)N(C)C(=O)[C@@H](Cc4ccc(Cc5ccnc(OC)c5OC)cc4)OC(=O)[C@H](CC(C)C)N(C)C(=O)[C@@H](C)OC(=O)[C@H](CC(C)C)N(C)C3=O)cc2)c1OC [Example 3-334, (3S,6R,9S,12R,15S,18R,21S,24R)-6,18-bis(4-((2,3-dimethoxypyridin-4-yl)methyl)benzyl)-3,9,15,21-tetraisobutyl-4,10,12,16,22,24-hexamethyl-1,7,13,19-tetraoxa-4,10,16,22-tetraazacyclotetracosan-2,5,8,11,14,17,20,23-octaone] | < 1 | 0.1 | 0.003 | 0.0003 | 10 | ≤ 1 | –
8 | Cc1cnsc1Cc1ccc(C[C@H]2OC(=O)[C@H](CC(C)C)N(C)C(=O)[C@@H](C)OC(=O)[C@H](CC(C)C)N(C)C(=O)[C@@H](Cc3ccc(Cc4sncc4C)cc3)OC(=O)[C@H](CC(C)C)N(C)C(=O)[C@@H](C)OC(=O)[C@H](CC(C)C)N(C)C2=O)cc1 [Example 3-288, (3S,6R,9S,12R,15S,18R,21S,24R)-3,9,15,21-tetraisobutyl-4,6,10,16,18,22-hexamethyl-12,24-bis(4-((4-methylisothiazol-5-yl)methyl)benzyl)-1,7,13,19-tetraoxa-4,10,16,22-tetraazacyclotetracosan-2,5,8,11,14,17,20,23-octaone] | < 1 | – | – | – | – | ≤ 1 | HcL3 MED ([1]; Minimum Effective Dose, H. contortus third stage larvae, approximately 96 hours, listed as (3-288)): 0.2 µM; DiL4 MED (D. immitis L4 larvae; Minimum Effective Dose, D. immitis L4 larvae motility, in vitro, listed as (3-288)): 0.1 nM; DiMf/DiL4 (D. immitis L4 larvae; listed as (3-288)): 30
9 | COc1ncc(Cl)cc1Cc1ccc(C[C@H]2OC(=O)[C@H](CC(C)C)N(C)C(=O)[C@@H](C)OC(=O)[C@H](CC(C)C)N(C)C(=O)[C@@H](Cc3ccc(Cc4cc(Cl)cnc4OC)cc3)OC(=O)[C@H](CC(C)C)N(C)C(=O)[C@@H](C)OC(=O)[C@H](CC(C)C)N(C)C2=O)cc1 [Example 3-332, (3S,6R,9S,12R,15S,18R,21S,24R)-6,18-bis(4-((5-chloro-2-methoxypyridin-3-yl)methyl)benzyl)-3,9,15,21-tetraisobutyl-4,10,12,16,22,24-hexamethyl-1,7,13,19-tetraoxa-4,10,16,22-tetraazacyclotetracosan-2,5,8,11,14,17,20,23-octaone] | – | – | 0.3 | 0.0005 | 548 | – | –
10 | Cc1nc(Cc2ccc(C[C@H]3OC(=O)[C@H](CC(C)C)N(C)C(=O)[C@@H](C)OC(=O)[C@H](CC(C)C)N(C)C(=O)[C@@H](Cc4ccccc4)OC(=O)[C@H](CC(C)C)N(C)C(=O)[C@@H](C)OC(=O)[C@H](CC(C)C)N(C)C3=O)cc2)sc1C [Example 4-115] | – | – | – | – | – | – | HcL3 MED (symbol after Ex#) ([1]; approximately 96 hours incubation, multiple-resistant field isolate): 4-115^ (Examples with a carrot (^) have HcL3 MED values>1 and ≤3.3 μM)
11 | Cc1nnsc1C(O)c1ccc(C[C@H]2OC(=O)[C@H](CC(C)C)N(C)C(=O)[C@@H](C)OC(=O)[C@H](CC(C)C)N(C)C(=O)[C@@H](Cc3ccc(C(O)c4snnc4C)cc3)OC(=O)[C@H](CC(C)C)N(C)C(=O)[C@@H](C)OC(=O)[C@H](CC(C)C)N(C)C2=O)cc1 (stereo partly drawn) [Example 3-126] | – | – | – | – | – | – | HcL3 MED [1, 6]: 3-126* (Examples with an asterisk (*) have HcL3 MED values≤1 μM)
12 | CC(C)C[C@H]1C(=O)O[C@H](Cc2ccc(Cc3cscn3)cc2)C(=O)N(C)[C@@H](CC(C)C)C(=O)O[C@H](C)C(=O)N(C)[C@@H](CC(C)C)C(=O)O[C@H](Cc2ccc(Cc3cscn3)cc2)C(=O)N(C)[C@@H](CC(C)C)C(=O)O[C@H](C)C(=O)N1C [Example 3-45] | – | – | – | – | – | – | HcL3 MED [1, 6]: 3-45* (Examples with an asterisk (*) have HcL3 MED values≤1 μM)
13 | Cc1nc(Cc2ccc(C[C@H]3OC(=O)[C@H](CC(C)C)N(C)C(=O)[C@@H](C)OC(=O)[C@H](CC(C)C)N(C)C(=O)[C@@H](Cc4ccc(Cc5csc(C)n5)cc4)OC(=O)[C@H](CC(C)C)N(C)C(=O)[C@@H](C)OC(=O)[C@H](CC(C)C)N(C)C3=O)cc2)cs1 [Example 3-76] | – | – | – | – | – | – | HcL3 MED [1, 6]: 3-76^ (Examples with a carrot (^) have HcL3 MED values>1 and ≤3.3 μM)
